Experimental data as given in PMC11078216, “Discovery of potent and selective activity-based probes (ABPs) for the deubiquitinating enzyme USP30” (RSC Chemical Biology, 2024).
Each block holds one molecule with its values, some of them ahead of it.

What was measured:
Test in all cases: ABPP chemical proteomics (LC-MS/MS) in HEK293T cells
Format in all cases: cell-based
ISOC2 = target: T1, ISOC2 (Homo sapiens, UniProt Q96AB3)
T1 construct: endogenous in cells; host or cells: HEK293T
T1 sequence (Q96AB3 1-205): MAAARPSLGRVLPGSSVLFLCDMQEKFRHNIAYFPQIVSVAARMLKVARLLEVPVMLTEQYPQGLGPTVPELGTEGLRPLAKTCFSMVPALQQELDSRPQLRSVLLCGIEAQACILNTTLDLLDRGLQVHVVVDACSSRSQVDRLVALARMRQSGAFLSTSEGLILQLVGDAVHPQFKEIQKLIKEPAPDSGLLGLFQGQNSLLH
Procedure: (§1) To explore the selectivity of IMP-2587 and IMP-2586 across the whole proteome, we performed quantitative activity-based protein profiling (ABPP) in HEK293T cells following treatment with IMP-2587 or IMP-2586 (Fig. 3a). After ABP incubation, cells were lysed, and probe-labelled proteins were ligated to biotinylated capture reagents.[27] […] USP30 was outcompeted by corresponding parent inhibitors for each ABP (Fig. 5b and d and Tables S3 and S5, ESI ^†), confirming the high potency and rapid engagement of IMP-2587 and IMP-2586 in cells. […] DESI1 and DESI2 are small ubiquitin-related modifier (SUMO) proteases,[3,29–32] and IMP-2587 and IMP-2586 may offer a starting point for future development of DESI ABPs. […]
(§2) d) Live cell probe incubation, lysate click chemistry and precipitation 6-well HEK293T cells were incubated with media containing compounds ABP 2 and ABP 4 at indicated concentrations for 1 h at 37 °C. The cells were washed with PBS and lysed with lysis buffer (50 μL (1% (v/v) Triton X-100, 0.1% (w/v) sodium dodecyl sulfate (SDS), EDTA-free complete protease inhibitor cocktail (1×, Roche) in PBS on ice for 10 min. The lysates were scraped and transferred to corresponding Lo-Bind Eppendorfs. Each lysate was sonicated for 1 minute, and the samples centrifuges at 5,000 x g at 4 °C for 5 minutes to pellet insoluble cellular debris. The supernatant was collected, and protein concentration was determined using the DC Protein Assay (Bio-Rad) as per manufacturer’s instructions, and normalised to lowest concentrated sample (e.g. 1 mg/mL, using lysis buffer). The following “click mixture” was prepared separately, preparing 6 μL for every 100 μL of […]
(§3) Capture reagent (AzRB/AzT for ABP 2, YnT/YnB for ABP 4 10 mM in DMSO, 1 vol; final concentration […]
(§4) CuSO4 (50 mM in water, 2 vol; final concentration in reaction 1 mM)
(§5) TCEP (50 mM in water, 2 vol; final concentration in reaction 1 mM)
(§6) TBTA (10 mM in DMSO, 1 vol; final concentration in reaction 100 µM)
(§7) The click mixture was vortexed and incubated at room temperature for 2 min before 6 μL of the mixture was added to every 100 μL of lysate. The reaction mixtures were shaken at room temperature for 1 h before being quenched with EDTA (500 mM in H2O) to a final concentration of 10 mM.
(§8) Proteins were precipitated by adding H2O (1 vol), MeOH (2 vol) and CHCl3 (0.5 vol), vortexing briefly then centrifuging at 17,000 × g for 5 min. The top H2O/MeOH layer was discarded and the middle layer of protein pellet and lower CHCl3 layer retained. The suspension was washed with MeOH (300 μL), and sonicated to break up the pellet. The proteins were pelleted by centrifugation at 10,000–17000 × g for 5–10 min or until a compact pellet was formed. The protein pellet was washed once more with MeOH (1 mL). The pellet was resuspended by sonicating and completely dissolving in 1% (w/v) SDS in PBS (to 5 mg/mL protein) before being made up to 1 mg/mL protein with PBS. […]
(§9) f) Neutravidin biotin enrichment (Affinity pull-down)
(§10) Click chemistry and precipitation steps were carried out as described in section 3.2.d, on at least 400ug of protein per sample. The pellet was resuspended by sonicating and completely dissolving in 1% (w/v) SDS in HEPES 50 mM pH 8.0, before being made up to 1 mg/mL protein with HEPES 50 mM pH 8.0 to […]
(§11) achieve a final concentration of 0.2% SDS. 20uL of each samples was collected as TL (Total lysate) samples. Pull down of biotinylated proteins was achieved by incubating samples with pre-equilibrated (3x 1 mL washes with 0.2% (w/v) SDS in HEPES 50 mM pH 8 buffer) Pierce™ NeutrAvidin™ Agarose beads for 3 hours at room temperature. NeutrAvidin™ Agarose beads were used in ratio of 1 μL bead resin per 10ug of protein sample. The beads were subsequently washed by moderate shaking for 10 seconds then briefly pelleting by table-top centrifuge then vacuum aspirating the supernatant with fine-end pipette tips (to not disturb the agarose) after collecting 20 µL supernatant as SN (supernatant […]
(§12) ) samples. […]

USP30 = target: T2, USP30 (Homo sapiens, UniProt Q70CQ3); settings: for probe concentration for detection of USP30 activity in intact cells: 10 min incubation; for Difference (log2 fold change of enrichment): USP30
T2 construct: We next determined cellular engagement of endogenous USP30 with IMP-2587 or IMP-2586; endogenous in cells; host or cells: HEK293T
T2 sequence (Q70CQ3 1-517): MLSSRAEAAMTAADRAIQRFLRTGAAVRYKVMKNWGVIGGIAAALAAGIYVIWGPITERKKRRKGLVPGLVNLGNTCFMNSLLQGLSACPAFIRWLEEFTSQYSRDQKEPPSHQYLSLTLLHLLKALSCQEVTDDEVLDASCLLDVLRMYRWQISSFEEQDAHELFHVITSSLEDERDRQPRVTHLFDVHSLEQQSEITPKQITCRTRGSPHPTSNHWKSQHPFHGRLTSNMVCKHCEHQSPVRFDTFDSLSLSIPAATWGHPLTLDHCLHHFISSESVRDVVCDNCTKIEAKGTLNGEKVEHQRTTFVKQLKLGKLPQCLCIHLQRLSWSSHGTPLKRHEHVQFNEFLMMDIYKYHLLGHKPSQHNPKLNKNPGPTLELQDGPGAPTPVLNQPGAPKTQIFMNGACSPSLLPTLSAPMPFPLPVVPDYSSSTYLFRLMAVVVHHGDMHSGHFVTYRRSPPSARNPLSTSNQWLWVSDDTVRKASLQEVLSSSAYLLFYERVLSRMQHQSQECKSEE
Procedure: as §1, §2, §3, §4, §5, §6, §7, §8, §9, §10, §11, §12

ISOC1 = target: T3, ISOC1 (Homo sapiens, UniProt Q96CN7)
T3 construct: endogenous in cells; host or cells: HEK293T
T3 sequence (Q96CN7 1-298): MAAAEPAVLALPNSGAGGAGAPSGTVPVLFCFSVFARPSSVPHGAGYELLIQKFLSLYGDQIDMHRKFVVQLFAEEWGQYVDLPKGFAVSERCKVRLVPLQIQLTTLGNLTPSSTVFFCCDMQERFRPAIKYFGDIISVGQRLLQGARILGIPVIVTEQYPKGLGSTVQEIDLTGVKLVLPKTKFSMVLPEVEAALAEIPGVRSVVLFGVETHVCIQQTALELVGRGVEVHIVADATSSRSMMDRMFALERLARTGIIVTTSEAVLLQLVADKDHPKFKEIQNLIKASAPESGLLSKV
Procedure: as §1, §2, §3, §4, §5, §6, §7, §8, §9, §10, §11, §12

[1] = IMP-2586 labelling vs DMSO, 30 nM, 10 min, HEK293T (Table S4, Fig.5c)
[2] = IMP-2587 labelling vs DMSO, 30 nM, 10 min, HEK293T (Table S2, Fig.5a)
[3] = compound 1 out-competition with IMP-2587 labelling, HEK293T (Table S3, Fig.5b)
[4] = compound 3 out-competition with IMP-2586 labelling, HEK293T (Table S5, Fig.5d)

Compound: N#CN1CC[C@@H](NC(=O)c2cc(-c3ccccc3Oc3ccc(N=[N+]=[N-])cc3)n[nH]2)C1 [IMP-2586]
Difference (log2 fold change of enrichment) (ISOC2; [1]): 3.62
probe concentration for detection of USP30 activity in intact cells (USP30): 30 nM
Difference (log2 fold change of enrichment) (USP30; [1]): 4.80
Difference (log2 fold change of enrichment) (ISOC1; [1]): 1.71

Compound: C#Cc1cccc(-c2cc(NC(=O)CC3CCN(C#N)C3)on2)c1 (stereo not shown) [IMP-2587]
Difference (log2 fold change of enrichment) (ISOC2; [2]): 3.87
probe concentration for detection of USP30 activity in intact cells (USP30): 30 nM
Difference (log2 fold change of enrichment) (ISOC1; [2]): 4.06

Difference (log2 fold change of enrichment) (ISOC2; [3]): -3.53
Difference (log2 fold change of enrichment) (USP30; [3]): -1.82
Difference (log2 fold change of enrichment) (ISOC1; [3]): -3.50
Compound: N#CN1CC[C@H](CC(=O)Nc2cc(-c3cccc(Cl)c3)no2)C1 [compound 1, reference compound]

Difference (log2 fold change of enrichment) (ISOC2; [4]): -3.08
Difference (log2 fold change of enrichment) (USP30; [4]): -4.18
Difference (log2 fold change of enrichment) (ISOC1; [4]): -1.80
Compound: N#CN1CC[C@@H](NC(=O)c2cc(-c3ccccc3Oc3ccccc3)n[nH]2)C1 [compound 3, reference compound]
